Measurements published in ChEMBL document CHEMBL3885861, “Open TG-GATES”.

Species on record: Rattus norvegicus
Experiment: Open TG-GATES - Regimen: Single
Type: toxicity, organism-based, Sprague-Dawley
Parameters: regimen Single, gender Male, age 6 weeks
Conditions: in vivo, po, route gavage; for AST / BUN / CRE / Ca / Cl / DBIL / GLC / IP / K / LDH / Na / PL / RALB / TBIL / TC / TG / TP / gamma-GTP / A/G / ALP / ALT: tissue Plasma; for APTT / Bas / Eos / Fbg / Hb / Ht / Lym / MCH / MCHC / MCV / Mono / Neu / PT / Plat / RBC / Ret / WBC: tissue Blood; for KIDNEY_L / KIDNEY_R / KIDNEY_TOTAL: tissue Kidney; for LIVER: tissue Liver
[1] = 100 mg/kg, 24 h, dose level High
[2] = 100 mg/kg, 24 h, dose level Low
[3] = 300 mg/kg, 3 h, dose level Middle
[4] = 300 mg/kg, 6 h, dose level Middle

For `O=C1CN(/N=C/c2ccc([N+](=O)[O-])o2)C(=O)N1` [NITROFURANTOIN], the AST (100 mg/kg, 9 h, dose level Low) was 66 IU/L, the BUN (100 mg/kg, 9 h, dose level Low) was 14.8 mg/dL and the CRE (100 mg/kg, 9 h, dose level Low) was 0.4 mg/dL. For the same compound, the Ca (100 mg/kg, 9 h, dose level Low) was 11.2 mg/dL, the Cl (100 mg/kg, 9 h, dose level Low) was 105 meq/L and the DBIL (100 mg/kg, 9 h, dose level Low) was 0.01 mg/dL. The GLC (100 mg/kg, 9 h, dose level Low) was 187.2 mg/dL, the IP (100 mg/kg, 9 h, dose level Low) was 7.8 mg/dL and the K (100 mg/kg, 9 h, dose level Low) was 4.8 meq/L. For the same compound, the LDH (100 mg/kg, 9 h, dose level Low) was 62.8 IU/L, the Na (100 mg/kg, 9 h, dose level Low) was 138.2 meq/L and the PL (100 mg/kg, 9 h, dose level Low) was 137.8 mg/dL. It also gave an RALB (100 mg/kg, 9 h, dose level Low) of 3.8 g/dL, a TBIL (100 mg/kg, 9 h, dose level Low) of 0.03 mg/dL and a TC (100 mg/kg, 9 h, dose level Low) of 77.8 mg/dL. For the same compound, the TG (100 mg/kg, 9 h, dose level Low) was 91.2 mg/dL, the TP (100 mg/kg, 9 h, dose level Low) was 5.6 g/dL and the gamma-GTP (100 mg/kg, 9 h, dose level Low) was 1 IU/L. It also gave a TERMINAL_BW [1] of 237.1 g, a TERMINAL_BW [2] of 213.4 g and an APTT [1] of 18.4 s. For the same compound, the Bas [1] was 0%, the Eos [1] was 1% and the Fbg [1] was 214.8 mg/dL. It also gave a Hb [1] of 13.5 g/dL, a Ht [1] of 38.6% and a Lym [1] of 79.6%. It also gave an MCH [1] of 22.1 pg, an MCHC [1] of 35.2% and an MCV [1] of 62.9 fL. The Mono [1] was 2.6%, the Neu [1] was 15.2% and the PT [1] was 12.3 s. For the same compound, the Plat [1] was 116.3 x10_4/uL, the RBC [1] was 614.4 x10_4/ul and the Ret [1] was 6.9%. For the same compound, the WBC [1] was 90.9 x10_2/uL, the APTT [2] was 16.1 s and the Eos [2] was 0.8%. For the same compound, the Fbg [2] was 227 mg/dL, the Hb [2] was 13.1 g/dL and the Ht [2] was 40%. It also gave a Lym [2] of 74.8%, an MCH [2] of 20.8 pg and an MCHC [2] of 32.7%. For the same compound, the MCV [2] was 63.7 fL, the Mono [2] was 10.2% and the Neu [2] was 14.2%. For the same compound, the PT [2] was 12 s, the Plat [2] was 129.7 x10_4/uL and the RBC [2] was 628.4 x10_4/ul. The Ret [2] was 5.8%, the WBC [2] was 76.3 x10_2/uL and the KIDNEY_L [1] was 1.1 g. It also gave a KIDNEY_R [1] of 1.1 g, a KIDNEY_TOTAL [1] of 2.1 g and a KIDNEY_L [2] of 1 g. The KIDNEY_R [2] was 1 g, the LIVER [1] was 12.4 g and the LIVER [2] was 10.4 g. For the same compound, the A/G [1] was 1.6, the ALP [1] was 970.4 IU/L and the ALT [1] was 39.2 IU/L. It also gave an AST [1] of 63.4 IU/L, a BUN [1] of 15.8 mg/dL and a CRE [1] of 0.4 mg/dL. For the same compound, the Ca [1] was 10.8 mg/dL, the Cl [1] was 102.4 meq/L and the DBIL [1] was 0.1 mg/dL. The GLC [1] was 219.8 mg/dL, the IP [1] was 7.3 mg/dL and the K [1] was 4.3 meq/L. The LDH [1] was 196.4 IU/L, the Na [1] was 139.6 meq/L and the PL [1] was 159.2 mg/dL. It also gave an RALB [1] of 3.3 g/dL, a TBIL [1] of 0.2 mg/dL and a TC [1] of 79.2 mg/dL. The TG [1] was 112.4 mg/dL, the TP [1] was 5.4 g/dL and the gamma-GTP [1] was 0.6 IU/L. The A/G [2] was 2.2, the ALP [2] was 1379.2 IU/L and the ALT [2] was 32.6 IU/L. The AST [2] was 62.6 IU/L, the BUN [2] was 15.4 mg/dL and the Ca [2] was 11.1 mg/dL. For the same compound, the Cl [2] was 105.4 meq/L, the DBIL [2] was 0.01 mg/dL and the GLC [2] was 194.2 mg/dL. The IP [2] was 9.1 mg/dL, the K [2] was 4.7 meq/L and the LDH [2] was 73.4 IU/L. The Na [2] was 141 meq/L, the PL [2] was 150.8 mg/dL and the RALB [2] was 3.8 g/dL. For the same compound, the TBIL [2] was 0.028 mg/dL, the TC [2] was 85.8 mg/dL and the TG [2] was 118.6 mg/dL. It also gave a TP [2] of 5.6 g/dL, a gamma-GTP [2] of 0 IU/L and a TERMINAL_BW [3] of 206.1 g. It also gave an APTT [3] of 16.4 s, a Bas [3] of 0% and an Eos [3] of 1%. The Fbg [3] was 227.6 mg/dL, the Hb [3] was 13.2 g/dL and the Ht [3] was 40.2%. It also gave a Lym [3] of 72.2%, an MCH [3] of 21.2 pg and an MCHC [3] of 32.9%. For the same compound, the MCV [3] was 64.5 fL, the Mono [3] was 5% and the Neu [3] was 21.8%. The PT [3] was 11.9 s, the Plat [3] was 123.8 x10_4/uL and the RBC [3] was 623.2 x10_4/ul. For the same compound, the Ret [3] was 7.6%, the WBC [3] was 84.5 x10_2/uL and the KIDNEY_L [3] was 0.9 g. The KIDNEY_R [3] was 0.9 g, the KIDNEY_TOTAL [3] was 1.8 g and the LIVER [3] was 8.5 g. It also gave an A/G [3] of 2.2, an ALP [3] of 1192.4 IU/L and an ALT [3] of 38 IU/L. For the same compound, the AST [3] was 65 IU/L, the BUN [3] was 12.4 mg/dL and the CRE [3] was 0.4 mg/dL. The Ca [3] was 11.5 mg/dL, the Cl [3] was 103 meq/L and the DBIL [3] was 0.004 mg/dL. It also gave a GLC [3] of 185.2 mg/dL, an IP [3] of 10.1 mg/dL and a K [3] of 4.2 meq/L. For the same compound, the LDH [3] was 108.2 IU/L, the Na [3] was 138.6 meq/L and the PL [3] was 131.6 mg/dL. For the same compound, the RALB [3] was 4 g/dL, the TBIL [3] was 0.03 mg/dL and the TC [3] was 86.4 mg/dL. It also gave a TG [3] of 37.2 mg/dL, a TP [3] of 5.8 g/dL and a gamma-GTP [3] of 1 IU/L. The TERMINAL_BW [4] was 204.8 g, the APTT [4] was 16.7 s and the Bas [4] was 0%. The Eos [4] was 1.4%.
